Assay results from PubChem BioAssay AID1963436 (Molecular Pharmacology Branch, DTP, NCI, 2024).
pIC50: −log10 of the molar value.

System: OVCAR-5 complex spheroid (HUVEC/MSC), viability % T/C
Assay: Anticancer human tumor OVCAR-5 cell line growth inhibition [Asc];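 further: spheroids exposed to agents for 7 days before readout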;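 on viability, T/C: 100% = DMSO vehicle-treated wells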
Details: for pIC50: curve of first compound; for viability, T/C: stronger effect = lower value
Summary of the method: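 Complex spheroids combining tumor cells with HUVEC endothelial cells and human MSCs, at 37 degrees C, 5% CO2; agents tested alone or combined, half-log dilutions from at or near clinical Cmax, or 10 microM if Cmax unknown.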

[1] = second compound 0.03 µM, first compound 0.0316 µM
[2] = second compound 0.03 µM, first compound 0.1 µM
[3] = second compound 0.03 µM, first compound 0.316 µM
[4] = second compound 0.03 µM, first compound 1 µM
[5] = second compound 0.03 µM, first compound 3.16 µM
[6] = second compound 0.03 µM, first compound 10 µM
[7] = second compound 0.0949 µM, first compound 0.0316 µM
[8] = second compound 0.0949 µM, first compound 0.1 µM
[9] = second compound 0.0949 µM, first compound 0.316 µM
[10] = second compound 0.0949 µM, first compound 1 µM
[11] = second compound 0.0949 µM, first compound 3.16 µM
[12] = second compound 0.0949 µM, first compound 10 µM
[13] = second compound 0.3 µM, first compound 0.0316 µM
[14] = second compound 0.3 µM, first compound 0.1 µM
[15] = second compound 0.3 µM, first compound 0.316 µM
[16] = second compound 0.3 µM, first compound 1 µM
[17] = second compound 0.3 µM, first compound 3.16 µM
[18] = second compound 0.3 µM, first compound 10 µM
[19] = second compound 0.949 µM, first compound 0.0316 µM
[20] = second compound 0.949 µM, first compound 0.1 µM
[21] = second compound 0.949 µM, first compound 0.316 µM
[22] = second compound 0.949 µM, first compound 1 µM
[23] = second compound 0.949 µM, first compound 3.16 µM
[24] = second compound 0.949 µM, first compound 10 µM
[25] = second compound 3 µM, first compound 0.0316 µM
[26] = second compound 3 µM, first compound 0.1 µM
[27] = second compound 3 µM, first compound 0.316 µM
[28] = second compound 3 µM, first compound 1 µM
[29] = second compound 3 µM, first compound 3.16 µM
[30] = second compound 3 µM, first compound 10 µM
[31] = second compound 0.03 µM, first compound 0.00316 µM
[32] = second compound 0.03 µM, first compound 0.01 µM
[33] = second compound 0.0949 µM, first compound 0.00316 µM
[34] = second compound 0.0949 µM, first compound 0.01 µM
[35] = second compound 0.3 µM, first compound 0.00316 µM
[36] = second compound 0.3 µM, first compound 0.01 µM
[37] = second compound 0.949 µM, first compound 0.00316 µM
[38] = second compound 0.949 µM, first compound 0.01 µM
[39] = second compound 3 µM, first compound 0.00316 µM
[40] = second compound 3 µM, first compound 0.01 µM

Compound: C#Cc1c(F)ccc2cc(O)cc(-c3ncc4c(N5CC6CCC(C5)N6)nc(OCC56CCCN5CC(F)C6)nc4c3F)c12 (stereo not given) + CCN1C(C(=O)NC23CCC(C(=O)O)(CC2)CC3)C(c2cccc(Cl)c2F)C2(C(=O)Nc3cc(Cl)ccc32)C12CCCCC2
- pIC50 (second compound 0.03 µM): 5.17
- pIC50 (second compound 0.0949 µM): 5.17
- pIC50 (second compound 0.3 µM): 5.17
- pIC50 (second compound 0.949 µM): 5.19
- pIC50 (second compound 3 µM): 5.27
- viability, T/C [1]: 108%
- viability, T/C [2]: 108%
- viability, T/C [3]: 83.3%
- viability, T/C [4]: 78%
- viability, T/C [5]: 73%
- viability, T/C [6]: 39.1%
- viability, T/C [7]: 106%
- viability, T/C [8]: 105%
- viability, T/C [9]: 91.1%
- viability, T/C [10]: 88.8%
- viability, T/C [11]: 66.5%
- viability, T/C [12]: 40.8%
- viability, T/C [13]: 101%
- viability, T/C [14]: 107%
- viability, T/C [15]: 106%
- viability, T/C [16]: 74.8%
- viability, T/C [17]: 66.2%
- viability, T/C [18]: 42.4%
- viability, T/C [19]: 99%
- viability, T/C [20]: 109%
- viability, T/C [21]: 102%
- viability, T/C [22]: 84.4%
- viability, T/C [23]: 65.5%
- viability, T/C [24]: 41.3%
- viability, T/C [25]: 104%
- viability, T/C [26]: 107%
- viability, T/C [27]: 107%
- viability, T/C [28]: 79.5%
- viability, T/C [29]: 61.2%
- viability, T/C [30]: 39.6%

Compound: C=C(F)C(=O)N1CCN(c2nc(OCC3CCCN3C)nc3c2CCN(c2cccc4cccc(Cl)c24)C3)CC1CC#N (stereo not given) + CCN1C(C(=O)NC23CCC(C(=O)O)(CC2)CC3)C(c2cccc(Cl)c2F)C2(C(=O)Nc3cc(Cl)ccc32)C12CCCCC2
- pIC50 (second compound 0.03 µM): 5.86
- pIC50 (second compound 0.0949 µM): 5.90
- pIC50 (second compound 0.3 µM): 5.89
- pIC50 (second compound 0.949 µM): 5.89
- pIC50 (second compound 3 µM): 5.89
- viability, T/C [1]: 108%
- viability, T/C [2]: 94.2%
- viability, T/C [3]: 90.1%
- viability, T/C [4]: 67.2%
- viability, T/C [5]: 9.46%
- viability, T/C [6]: 0.18%
- viability, T/C [7]: 102%
- viability, T/C [8]: 104%
- viability, T/C [9]: 87.7%
- viability, T/C [10]: 62.4%
- viability, T/C [11]: 9.56%
- viability, T/C [12]: 0.18%
- viability, T/C [13]: 101%
- viability, T/C [14]: 122%
- viability, T/C [15]: 101%
- viability, T/C [16]: 62.7%
- viability, T/C [17]: 7.84%
- viability, T/C [18]: 0.2%
- viability, T/C [19]: 109%
- viability, T/C [20]: 110%
- viability, T/C [21]: 105%
- viability, T/C [22]: 60.4%
- viability, T/C [23]: 11.3%
- viability, T/C [24]: 0.18%
- viability, T/C [25]: 115%
- viability, T/C [26]: 112%
- viability, T/C [27]: 104%
- viability, T/C [28]: 61.8%
- viability, T/C [29]: 10.2%
- viability, T/C [30]: 1.38%

Compound: C=CC(=O)N1CCN(c2nc(=O)n(-c3c(C)ccnc3C(C)C)c3nc(-c4c(O)cccc4F)c(F)cc23)C(C)C1 (stereo not given) + CCN1C(C(=O)NC23CCC(C(=O)O)(CC2)CC3)C(c2cccc(Cl)c2F)C2(C(=O)Nc3cc(Cl)ccc32)C12CCCCC2
- pIC50 (second compound 0.03 µM): < 5.00
- pIC50 (second compound 0.0949 µM): < 5.00
- pIC50 (second compound 0.3 µM): < 5.00
- pIC50 (second compound 0.949 µM): < 5.00
- pIC50 (second compound 3 µM): < 5.00
- viability, T/C [1]: 112%
- viability, T/C [2]: 111%
- viability, T/C [3]: 120%
- viability, T/C [4]: 125%
- viability, T/C [5]: 113%
- viability, T/C [6]: 104%
- viability, T/C [7]: 110%
- viability, T/C [8]: 111%
- viability, T/C [9]: 106%
- viability, T/C [10]: 112%
- viability, T/C [11]: 116%
- viability, T/C [12]: 92.1%
- viability, T/C [13]: 105%
- viability, T/C [14]: 119%
- viability, T/C [15]: 112%
- viability, T/C [16]: 121%
- viability, T/C [17]: 118%
- viability, T/C [18]: 116%
- viability, T/C [19]: 109%
- viability, T/C [20]: 118%
- viability, T/C [21]: 102%
- viability, T/C [22]: 103%
- viability, T/C [23]: 109%
- viability, T/C [24]: 106%
- viability, T/C [25]: 116%
- viability, T/C [26]: 118%
- viability, T/C [27]: 122%
- viability, T/C [28]: 111%
- viability, T/C [29]: 111%
- viability, T/C [30]: 111%

Compound: CNC(C)C(=O)NC1CN(S(=O)(=O)c2cccc(S(=O)(=O)N3CCC4CCC(C(=O)NC(c5ccccc5)c5ccccc5)N4C(=O)C(NC(=O)C(C)NC)C3)c2)CCC2CCC(C(=O)NC(c3ccccc3)c3ccccc3)N2C1=O (stereo not given) + CCN1C(C(=O)NC23CCC(C(=O)O)(CC2)CC3)C(c2cccc(Cl)c2F)C2(C(=O)Nc3cc(Cl)ccc32)C12CCCCC2
- pIC50 (second compound 0.03 µM): < 6.00
- pIC50 (second compound 0.0949 µM): < 6.00
- pIC50 (second compound 0.3 µM): < 6.00
- pIC50 (second compound 0.949 µM): < 6.00
- pIC50 (second compound 3 µM): < 6.00
- viability, T/C [31]: 97.3%
- viability, T/C [32]: 107%
- viability, T/C [1]: 86.2%
- viability, T/C [2]: 84.7%
- viability, T/C [3]: 94.4%
- viability, T/C [4]: 75%
- viability, T/C [33]: 90.5%
- viability, T/C [34]: 102%
- viability, T/C [7]: 80.7%
- viability, T/C [8]: 77.1%
- viability, T/C [9]: 78.8%
- viability, T/C [10]: 78.3%
- viability, T/C [35]: 102%
- viability, T/C [36]: 94%
- viability, T/C [13]: 84.5%
- viability, T/C [14]: 74.7%
- viability, T/C [15]: 87.3%
- viability, T/C [16]: 95.3%
- viability, T/C [37]: 109%
- viability, T/C [38]: 102%
- viability, T/C [19]: 87.5%
- viability, T/C [20]: 70.2%
- viability, T/C [21]: 85.1%
- viability, T/C [22]: 95%
- viability, T/C [39]: 102%
- viability, T/C [40]: 101%
- viability, T/C [25]: 96.7%
- viability, T/C [26]: 79.9%
- viability, T/C [27]: 84.4%
- viability, T/C [28]: 90.8%

Compound: COc1c(OCCCN2CCOCC2)ccc2c3n(c(=NC(=O)c4cnc(N)nc4)nc12)CCN3 + CCN1C(C(=O)NC23CCC(C(=O)O)(CC2)CC3)C(c2cccc(Cl)c2F)C2(C(=O)Nc3cc(Cl)ccc32)C12CCCCC2
- pIC50 (second compound 0.03 µM): 7.44
- pIC50 (second compound 0.0949 µM): 7.53
- pIC50 (second compound 0.3 µM): 7.35
- pIC50 (second compound 0.949 µM): 7.42
- pIC50 (second compound 3 µM): 7.47
- viability, T/C [31]: 82.4%
- viability, T/C [32]: 79.6%
- viability, T/C [1]: 49.8%
- viability, T/C [2]: 29.9%
- viability, T/C [3]: 20%
- viability, T/C [4]: 11.9%
- viability, T/C [33]: 91.6%
- viability, T/C [34]: 75.8%
- viability, T/C [7]: 46.3%
- viability, T/C [8]: 28.1%
- viability, T/C [9]: 17.8%
- viability, T/C [10]: 9.62%
- viability, T/C [35]: 87.8%
- viability, T/C [36]: 82.3%
- viability, T/C [13]: 56.6%
- viability, T/C [14]: 31.1%
- viability, T/C [15]: 17.8%
- viability, T/C [16]: 10.5%
- viability, T/C [37]: 79.4%
- viability, T/C [38]: 75.1%
- viability, T/C [19]: 54.8%
- viability, T/C [20]: 24.8%
- viability, T/C [21]: 17.3%
- viability, T/C [22]: 8.43%
- viability, T/C [39]: 89.7%
- viability, T/C [40]: 83.9%
- viability, T/C [25]: 51%
- viability, T/C [26]: 22%
- viability, T/C [27]: 15.2%
- viability, T/C [28]: 8.71%
